We go through six compounds from PubChem BioAssay (NCI).

Holding throughout (test): NCI tumour cell line growth inhibition, 48 h
The subject of assay [1] is CAKI-1 renal.
For assay [2], the system named is RXF 393 renal.
In assay [3] the test system is SNB-19 CNS.
For assay [4], the system named is SF-295 CNS.
For assay [5], the system named is NCI-H226 lung.
For assay [6], the system named is M14 melanoma.
For assay [7], the system named is OVCAR-8 ovarian.
Assay [8] concerns KM12 colon.
Assay [9] relates to COLO 205 colon.
Assay [10] deals with 786-0 renal.

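How tested: cells in 96-well plates exposed to compound for 48 hours at five concentrations. The concentration for 50% growth inhibition is given as GI50. TGI: total growth inhibition.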 Some results are limits rather than exact numbers.

As to `COC(=O)C1=CNC=C(C(=O)OC)C1C1=CC(=O)C(C)=CC1=O`, the GI50 in assay [1] is 6.71 µM; in [2] it was 31.1 µM; in [3], 18.5 µM; in assay [4] it was 19.7 µM; in assay [5], 5.35 µM; in [6], 15.2 µM. Besides, the GI50 in assay [7] is 14.3 µM; in assay [8], 17.1 µM; in [9] it was 22.9 µM; in [10], 4.3 µM. In addition, the TGI was 19.4 µM in assay [1]; > 54.2 µM in assay [2]; 36.7 µM in [3]; 40.1 µM in assay [4]; 17.2 µM in [5]; 29.1 µM in assay [6]. The TGI was 29.1 µM in assay [7], 31.8 µM in assay [8], 55.1 µM in assay [9] and 11.5 µM in assay [10].
On to `COc1nc2ccccc2cc1-c1nc2c(cnn2-c2ccc(Br)cc2)c(=O)[nH]1`, for which the GI50 is 0.0196 µM in assay [1]; 0.0163 µM in assay [2]; 0.0244 µM in assay [3]; 0.0195 µM in [4]; 0.51 µM in [5]; 0.0204 µM in assay [6]. Also, the GI50 was 0.0577 µM in assay [7], 0.0226 µM in [8], 0.0545 µM in [9] and 0.0403 µM in [10]. The TGI in assay [1] is > 50 µM; in [2] it was 0.245 µM; in assay [3], 15.1 µM; in assay [4], 1.62 µM; in assay [5] it was > 50 µM; in [6], 2.33 µM. Also, the figures for the TGI in assay [7], in [8] and in assay [10] were > 50 µM, > 50 µM and 8.6 µM, respectively.
In the case of `COc1cc2c(cc1OC)C(CC(=O)NN=C(C)C)NCC2` (centres undefined), the TGI in [1], in assay [2], in assay [3], in assay [4], in assay [5] and in assay [6] was > 100 µM in each case. Further, the TGI in [7], in [8], in assay [9] and in assay [10] was > 100 µM throughout.
`COc1ccccc1CNCCCN1C(=O)c2ccc3c4c(ccc(c24)C1=O)C(=O)N(CCCOCCCCOCCCN)C3=O`: the GI50 in assay [1] is 1.83 µM; in assay [2], 0.771 µM; in assay [3], 1.71 µM; in assay [4] it was 1.42 µM; in assay [5] it was 1.56 µM; in assay [6], 1.42 µM. In addition, the GI50 in [7] was 0.473 µM; in assay [8] it was 1.26 µM; in [9], 0.233 µM; in [10], 1.53 µM. Moreover, the TGI in assay [1] is 5.13 µM; in [2], 2.2 µM; in [3] it was 4.87 µM; in assay [4] it was 3.43 µM; in assay [5], 3.02 µM; in assay [6], 4.82 µM. For the same compound, the TGI turned out to be 2.08 µM in [7], 2.79 µM in [8], 0.454 µM in assay [9] and 3.84 µM in assay [10].
`COC(=O)[C@H](C)NC(=O)NC(=O)NC(=O)CI`: the GI50 is 2.53 µM in assay [1]; 12.5 µM in assay [2]; 19.8 µM in assay [3]; 17.4 µM in [4]; 19.8 µM in assay [5]; 11.8 µM in [6]. For the same compound, the GI50 in [7] is 16.6 µM; in [8] it was 17.8 µM; in [9], 2.54 µM; in assay [10], 17.3 µM. Further, the TGI worked out at 6.73 µM in assay [1]; 25.5 µM in [2]; 43.1 µM in [3]; 33.1 µM in assay [4]; 44.9 µM in assay [5]; 27.5 µM in [6]. Besides, the TGI in assay [7] turned out to be 33.9 µM; in assay [8], 35.5 µM; in assay [9], 6.49 µM; in [10], 32.1 µM.
On to `CC(C)(C)c1cc(C(C)(C)C)cc(S(=O)(=O)Nc2cc3ccccc3cc2C(=O)NCCN)c1`, for which the GI50 in assay [1] is 2.75 µM; in assay [2], 1.79 µM; in assay [3] it was 1.89 µM; in [4], 1.72 µM; in assay [5], 2.16 µM; in [6], 1.71 µM. Further, the GI50 is 2.2 µM in assay [7], 1.79 µM in [8], 1.82 µM in assay [9] and 1.67 µM in assay [10]. Also, the TGI in [1] was determined as 9.33 µM; in assay [2], 3.18 µM; in assay [3], 3.52 µM; in [4], 3.17 µM; in assay [5], 4.28 µM; in assay [6], 3.42 µM. For the same compound, the TGI worked out at 4.87 µM in assay [7], 3.37 µM in assay [8], 3.37 µM in assay [9] and 3.09 µM in assay [10].
